Reference: patent US8569270B2, “Diphenyl sulfide derivatives and medicines containing same as active ingredient” (Kyorin Pharmaceutical Co., Ltd., priority 2009, dated 2013)
pEC50, pKd: −log10 of the molar value.

Tests used:
[1] = system: Cecal ligation and puncture sepsis model; assay: Cecal ligation and puncture sepsis model, survival; type: in vivo, Long-Evans rats; conditions: 0.1 mg/kg/hr continuous i.v. from 2 hours after CLP, rat
Method: This model is widely used as a model for polymicrobial abdominal sepsis caused by leakage of intestinal bacteria. The experiment was carried out with reference to the method described in Non-Patent Literature 9 (D. Rittirsch et al., Nature Protocols, 4, 31 (2009)). Long-Evans rats were used (Nihon SLC, male 9 weeks). The abdominal portion of the rats was cut open under isoflurane anesthesia, and the cecum was removed. The cecum was ligated with silk thread, and 3 holes were opened in the tip portion of the cecum using an 18 G syringe needle. After the treatment, the cecum was returned to the body, and the wound was sutured. The rats were then returned to their cages, and observed for 4 days to determine the survival rate. The test compound (0.1 mg/kg/hr) was continuously administered from a cannula stuck in the femoral vein from 2 hours after the CLP treatment.

Human S1P3 receptor = target: T1, Human S1P3 receptor (Homo sapiens, UniProt Q99500); assay: Suppression of S1P-induced cellular calcium mobilization in human S1P3 receptor-expression CHO cells (Schild plot); type: cell-based; conditions: Schild plot of S1P EC50 shift; test compound 125 nM, 1.25 μM, 12.5 μM; hS1P3 CHO cells; read-out: S1P3 dissociation constant Kd value
T1 construct: expressed in transfected cells; host or cells: CHO cells (Geneticin-selected)
Method: Suppression Effect of Test Compound Against Cellular Calcium Mobilization of Human S1P3 Receptor-Expression Cell by S1P (Sphingosine 1-Phosphoric Acid)
Human S1P3 receptor-expression CHO cells were subcultured in a Ham's F-12 culture medium containing 10% fetal bovine serum, and 300 μg/mL of Geneticin. The human S1P3 receptor-expression CHO cells were subjected to 0.25% trypsinization, then recovered from the dish, and floated in a Ham's F-12 culture medium containing 10% fetal bovine serum, and 300 μg/mL of Geneticin. After that, the human S1P3 receptor-expression CHO cells were disseminated into a 96-well black clear bottom plate (BD Falcon Biocoat) so that 7×10^4/100 μL/well of the human S1P3 receptor-expression CHO cells were disseminated. And then, the human S1P3 receptor-expression CHO cells were cultivated for one night at 37° C. under 5% CO2. The next day, the wells were washed 3 times with 100 μL of PBS containing 0.1% fatty acid-free bovine serum albumin (BSA). The culture medium was exchanged with a Ham's F-12 culture medium containing 0.1% BSA, and then starved of serum for 6 hours in an CO2 incubator at 37° C.
The culture medium was thrown away after the 6 hours. Then, 50 μL/well of a Fluo3 loading buffer was added, and the cultures were cultivated for further 1 hour. The Fluo3 loading buffer was prepared as follows. First, equal amounts of Fluo3-AM (Dojindo) and pluronic F-127 (20% DMSO solution, invitrogen) were mixed. Next, the mixture of Fluo3-AM and pluronic F-127 was added to a Hanks-HEPES buffer (balanced salt solution containing 20 mM HEPES (pH, 7.4), 0.1% BSA (fatty acid-free), and 2.5 mM probenecid) to form a Fluo3 loading buffer having a final Fluo3-AM concentration of 4
After incubating for 1 hour, the cultures were washed 3 times with 100 μL of the Hanks-HEPES buffer. Then, 100 μL of the same buffer in which a test compound (125 nM, 1.25 μM, 12.5 μM) or DMSO had been dissolved was added to the cultures, and then incubated for 30 minutes at 37° C. in a microplate spectrophotofluorometer (FLEX Station) (Molecular Device Co., Ltd.). Then, 25 μL of S1P prepared at 5 times the concentration of the final concentration by serial dilution (final concentration of 0.1 nM, 1 nM, 10 nM, 100 nM, and 1 μM) was added, and the fluorescence based on the Fluo3 due to calcium mobilization was detected and measured at an excitation wavelength of 485 nm and a detection wavelength of 525 nm using the same apparatus. Based on the measurement data, the increase in fluorescence was calculated by subtracting the minimum fluorescence intensity from the maximum fluorescence intensity. The measured increase in fluorescence was used to perform a curve approximation of the relationship between the S1P concentration and the increase in fluorescence using PRISM 4 software (GraphPad). Based on the results, the EC50 value of the compound-untreated and the EC50 value of the compound-treated at each concentration were calculated. Schild Plot analysis was performed based on these values to determine dissociation constant Kd value. In Table 1, 1,000 nmol/L>Kd value≧100 nmol/L is indicated as “+,” 100 nmol/L>Kd value≧10 nmol/L is indicated as “++,” 10 nmol/L>Kd value≧1 nmol/L is indicated as “+++,” and 1 nmol/L>Kd value is indicated as “++++.”

S1P1 receptor [2] = target: T2, S1P1 receptor (Homo sapiens, UniProt P21453); assay: Intracellular calcium mobilization derivative (agonist) test in human S1P1 receptor-expression CHO cells; type: cell-based; parameters: expressed in transfected cells; host or cells: CHO cells (Geneticin-selected); conditions: agonist mode, read-out: EC50 value, intracellular calcium mobilization derivative action
Method: Intracellular Calcium Mobilization Derivative Test of Test Compound Against Human S1P1 Receptor-Expression Cell
Human S1P receptor-expression CHO cells (hS1P1 receptor-expression CHO cells, hS1P3 receptor-expression CHO cells, and hS1P4 receptor-expression CHO cells) subcultured in a Ham's F-12 culture medium containing 10% fetal bovine serum, and 200 μg/mL of Geneticin were disseminated into a 96-well black clear bottom plate (coaster) so that 4×10^4 cells/well of the human S1P receptor-expression CHO cells were disseminated. The human S1P3 receptor-expression CHO cells were then cultivated for one night at 37° C. under 5% CO2. A Calcium Screening Kit reagent (Dojindo) was added as a Ca^2+ binding fluorescence indicator, and then the cultures were cultivated for 60 minutes at 37° C. under 5% CO2. After cultivation, the fluoroesence intensity was measured at an excitation wavelength of 485 nm and a detection wavelength of 525 nm using a microplate spectrophotofluorometer (FLEX Station) (Molecular Device Co., Ltd.). S1P prepared in a culture medium so that the concentration would be 10 times that of the final concentration, or a test compound (final DMSO concentration 0.1%) was added 18 seconds after the start of the fluorescence measurement, and the fluorescence intensity was continuously measured every 1.5 seconds until 100 seconds after the addition. […]

S1P1 receptor [3] = target: T2, S1P1 receptor; assay: Antagonistic action on the S1P1 receptor using the method of Experiment Example 1; type: cell-based; parameters: expressed in transfected cells
IL-1β production = assay: LPS induced sepsis model, IL-1β in tissue by ELISA; type: in vivo, C57BL/6J mouse; conditions: 10 mg/kg i.v. twice (15 min before and 2 h after LPS), 18 h after LPS
Method: The experiment was carried out with reference to the method described in Non-Patent Literature 5 (F. Nissen et al., Nature, 452, 654 (2008)). A solution of 1 mg/ml LPS (lipopolysaccharide) in physiological saline was intraperitoneally administered (10 ml/kg) to a C57BL/6J mouse (Charles River, male, 7 to 8 weeks). The test compound in an amount of 10 mg/kg was intravenously administered twice, 15 minutes before LPS administration and 2 hours after LPS administration. The mouse was dissected 18 hours after LPS administration, and the mesenteric lymph nodes and lungs were excised. The mesenteric lymph nodes were dissolved in 200 μl and the lungs in 1 ml of a dissolving buffer (30 mM Tris (pH7.4), 150 mM NaCl, 0.1% TritonX-100, 2 mM CaCl2, and 2 mM MgCl2). Non-dissolved matter was removed by centrifugal separation. The IL-1β in the tissue solutions was measured using an IL-1β ELISA Kit (Thermo Co., Ltd.). In Table 2, compounds having a suppression rate of 50% or more are indicated as “+++,” compounds having a suppression rate of 50%>suppression rate≧30% are indicated as “++,” and compounds having a suppression rate of 30%>suppression rate 20% are indicated as “+.”
The suppression rate was calculated using the following calculation equation. a=(1−X/Y)×100 [Equation 1] X: IL-1β PRODUCTION AMOUNT WHEN, 10 mg/kg OF TEST COMPOUND WAS ADMINISTERED TO RESPECTIVE TISSUE Y: IL-1β PRODUCTION AMOUNT WHEN TEST COMPOUND WAS NOT ADMINISTERED TO RESPECTIVE TISSUE a: SUPPRESSION RATE (%)

T1 sequence (Q99500 whole entry): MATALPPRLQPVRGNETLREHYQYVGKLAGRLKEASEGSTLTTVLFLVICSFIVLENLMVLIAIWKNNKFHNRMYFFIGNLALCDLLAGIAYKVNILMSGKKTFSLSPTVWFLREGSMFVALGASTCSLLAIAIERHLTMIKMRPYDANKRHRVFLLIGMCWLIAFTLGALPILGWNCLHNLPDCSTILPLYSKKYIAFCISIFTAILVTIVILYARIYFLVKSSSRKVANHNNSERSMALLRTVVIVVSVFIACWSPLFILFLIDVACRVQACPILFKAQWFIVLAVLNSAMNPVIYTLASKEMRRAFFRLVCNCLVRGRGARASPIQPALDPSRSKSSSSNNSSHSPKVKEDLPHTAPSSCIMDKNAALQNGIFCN
T2 sequence (P21453 whole entry): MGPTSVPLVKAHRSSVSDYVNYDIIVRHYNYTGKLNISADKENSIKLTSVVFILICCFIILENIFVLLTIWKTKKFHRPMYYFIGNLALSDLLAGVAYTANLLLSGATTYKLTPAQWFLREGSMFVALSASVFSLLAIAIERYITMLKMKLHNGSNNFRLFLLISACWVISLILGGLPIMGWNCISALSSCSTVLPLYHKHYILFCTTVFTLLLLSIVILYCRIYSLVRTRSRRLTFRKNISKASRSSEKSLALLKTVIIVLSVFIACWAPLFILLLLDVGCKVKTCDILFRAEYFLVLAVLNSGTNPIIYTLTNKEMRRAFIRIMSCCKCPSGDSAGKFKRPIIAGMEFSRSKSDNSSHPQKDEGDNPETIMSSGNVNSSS

Compound | survival rate after 4 days ([1]; medium group 40%) [%] | survival curve compared with the medium administration group ([1]; observed 4 days) | pKd (Human S1P3 receptor) | pEC50 (S1P1 receptor [2]) | pKd (S1P1 receptor [3]) | Suppression Rate for Lung (IL-1β production; mouse lung) | Suppression Rate for Mesenteric Lymph Nodes (IL-1β production; mouse mesenteric lymph nodes)
CCC[C@](N)(CCc1ccc(Sc2cc(-c3ccccc3)ccc2O)cc1Cl)COP(=O)(O)O [Example 22] | 70 | survival curve that had shifted to the right | > 9.00 | – | – | – | –
C[C@](N)(CCc1ccc(Sc2cc(C#N)ccc2O)cc1Cl)COP(=O)(O)O [Example 15, (S)-2-amino-4-[2-chloro-4-(5-cyano-2-hydroxyphenylthio)phenyl]-2-methylbutylphosphoric acid monoester] | – | – | 6.00 to 7.00 | < 5.00 | < 4.00 | – | –
CCC[C@](N)(CCc1ccc(Sc2cc(C(F)(F)F)ccc2O)cc1Cl)COP(=O)(O)O [Example 13] | – | – | > 9.00 | < 5.00 | < 4.00 | +++ (suppression rate of 50% or more) | +++ (suppression rate of 50% or more)
